Assay results taken from patent US20260168987A1, “OBLIQUE LINE SCANNER SYSTEMS AND METHODS FOR HIGH THROUGHPUT SINGLE MOLECULE TRACKING IN LIVING CELLS” (EIKON THERAPEUTICS, INC., priority 2022, published 2026).

Test system: Halo-PCNA U2OS cells
Test: Cell cycle phase assignment by machine learning model in Halo-PCNA U2OS cells
Format: cell-based
Conditions: 2 mM Thymidine (S-phase block) or RO-3306 (G2-M block) per FIG. 20B legend
Method: Time-lapse microscopy was conducted on Halo-PCNA labeled with 50 nM JFX650, to achieve near-saturating labeling, for 12 hours at 12 frames per hour (FIG. 21A). A machine learning model was then trained using both manually assigned cell stages and time-based progression resulting in both a G1, early S, mid S, late S, G2 and mitosis classifier as well as a regression prediction across the continuum of the cell cycle (FIG. 21B). The predicted cell cycle classification performed well as compared to manual annotation (FIG. 21C). Clear progression of individual cells through the cell cycle was observed when regression prediction was plotted across the time series (FIG. 21D). […] When cells in each cell phase were analyzed separately, it became apparent that the slow-moving population of PCNA was exclusively found in cell predicted to be in S-phase and that there was a marked decrease in the fast-moving population (FIG. 20E). Mean diffusion coefficient of PCNA was then measured for 4,081 individual cells to characterize heterogeneity across the cell population, which is described in large part by cell cycle (FIG. 20F).
Cell cycle as provided above can be automatically determined using an image (e.g., an image of JF549-labeled PCNA). […]

| Structure (SMILES) | fraction of cells assigned to cell phases |
| --- | --- |
| O=C1NC(=NCc2cccs2)S/C1=C\c1ccc2ncccc2c1 [RO-3306] | expected enrichment in the fraction of cells assigned to the respective cell phases |
| Cc1cn([C@H]2C[C@H](O)[C@@H](CO)O2)c(=O)[nH]c1=O [thymidine] | expected enrichment in the fraction of cells assigned to the respective cell phases |
